Results from ChEMBL document CHEMBL1201862, “PubChem BioAssay data set” (2004).
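In this assay, cells in 96-well plates receive the compound at five concentrations for 48 hours. Endpoints are linearly interpolated between the surrounding concentrations. The concentration for 50% growth inhibition is given as GI50.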 Active and inactive are the calls of the source. Rule as the data show it: active = GI50 up to about 1.1 µM and inactive = higher.

Assays:
Experiment in all cases: growth of human tumour cells (NCI), 48 h
SK-MEL-2 = test system: SK-MEL-2
M14 = test system: M14
HCT-116 = test system: HCT-116
CCRF-CEM = test system: CCRF-CEM
UACC-257 = test system: UACC-257
LOX IMVI = test system: LOX IMVI
DLD-1 = test system: DLD-1
NCI-H226 = test system: NCI-H226
Malme-3M = test system: Malme-3M
KM-20L2 = test system: KM-20L2
ACHN = test system: ACHN
UO-31 = test system: UO-31
SNB-78 = test system: SNB-78
UACC-62 = test system: UACC-62
XF498 = test system: XF498
A549 = test system: A549
NCI-H522 = test system: NCI-H522
CAKI-1 = test system: CAKI-1
NCI-H23 = test system: NCI-H23
HT-29 = test system: HT-29
EKVX = test system: EKVX
DMS-273 = test system: DMS-273
K562 = test system: K562
OVCAR-3 = test system: OVCAR-3
SF-295 = test system: SF-295
SNB-19 = test system: SNB-19
SN12C = test system: SN12C
M19-MEL = test system: M19-MEL
U-251 = test system: U-251
TK-10 = test system: TK-10
SF-539 = test system: SF-539
SF-268 = test system: SF-268
MOLT-4 = test system: MOLT-4
786-0 = test system: 786-0
KM12 = test system: KM12
SW-620 = test system: SW-620
SNB-75 = test system: SNB-75
SK-OV-3 = test system: SK-OV-3
HL-60 = test system: HL-60
LXFL 529 = test system: LXFL 529
HCT-15 = test system: HCT-15
RPMI-8226 = test system: RPMI-8226
HOP-92 = test system: HOP-92
SR = test system: SR
SK-MEL-28 = test system: SK-MEL-28
IGROV-1 = test system: IGROV-1
SK-MEL-5 = test system: SK-MEL-5
COLO 205 = test system: COLO 205
OVCAR-5 = test system: OVCAR-5
OVCAR-4 = test system: OVCAR-4
A498 = test system: A498
NCI-H460 = test system: NCI-H460
HOP-62 = test system: HOP-62
OVCAR-8 = test system: OVCAR-8
HOP-18 = test system: HOP-18
RXF 393 = test system: RXF 393
DMS-114 = test system: DMS-114
HCC 2998 = test system: HCC 2998

## Cc1cccc(NC(=O)CC#N)c1Cl
SK-MEL-2
  GI50: > 100 µM (inactive)
M14
  GI50: > 100 µM (inactive)
HCT-116
  GI50: > 100 µM (inactive)
CCRF-CEM
  GI50: > 100 µM (inactive)
UACC-257
  GI50: > 100 µM (inactive)
LOX IMVI
  GI50: > 100 µM (inactive)
DLD-1
  GI50: > 100 µM (inactive)
NCI-H226
  GI50: > 100 µM (inactive)
Malme-3M
  GI50: > 100 µM (inactive)
KM-20L2
  GI50: > 100 µM (inactive)
ACHN
  GI50: > 100 µM (inactive)
UO-31
  GI50: 99.3 µM (inactive)
SNB-78
  GI50: > 100 µM (inactive)
UACC-62
  GI50: > 100 µM (inactive)
XF498
  GI50: > 100 µM (inactive)
A549
  GI50: > 100 µM (inactive)
NCI-H522
  GI50: > 100 µM (inactive)
CAKI-1
  GI50: > 100 µM (inactive)
NCI-H23
  GI50: > 100 µM (inactive)
HT-29
  GI50: > 100 µM (inactive)
EKVX
  GI50: > 100 µM (inactive)
DMS-273
  GI50: > 100 µM (inactive)
K562
  GI50: > 100 µM (inactive)
OVCAR-3
  GI50: > 100 µM (inactive)
SF-295
  GI50: > 100 µM (inactive)
SNB-19
  GI50: > 100 µM (inactive)
SN12C
  GI50: > 100 µM (inactive)
M19-MEL
  GI50: > 100 µM (inactive)
U-251
  GI50: > 100 µM (inactive)
TK-10
  GI50: > 100 µM (inactive)
SF-539
  GI50: > 100 µM (inactive)
SF-268
  GI50: > 100 µM (inactive)
MOLT-4
  GI50: > 100 µM (inactive)
786-0
  GI50: > 100 µM (inactive)
KM12
  GI50: > 100 µM (inactive)
SW-620
  GI50: > 100 µM (inactive)
SNB-75
  GI50: > 100 µM (inactive)
SK-OV-3
  GI50: > 100 µM (inactive)
HL-60
  GI50: > 100 µM (inactive)
LXFL 529
  GI50: > 100 µM (inactive)
HCT-15
  GI50: > 100 µM
RPMI-8226
  GI50: > 100 µM (inactive)
HOP-92
  GI50: > 100 µM (inactive)
SR
  GI50: > 100 µM (inactive)
SK-MEL-28
  GI50: > 100 µM (inactive)
IGROV-1
  GI50: > 100 µM (inactive)

## CCCCCCCCCCCCCCCC(=O)OCCOCCOCCOCc1ccccc1
SK-MEL-2
  GI50: > 100 µM (inactive)
SK-MEL-5
  GI50: > 100 µM (inactive)
COLO 205
  GI50: > 100 µM (inactive)
HCT-116
  GI50: > 100 µM (inactive)
OVCAR-5
  GI50: > 100 µM (inactive)
UACC-257
  GI50: > 100 µM (inactive)
LOX IMVI
  GI50: > 100 µM (inactive)
OVCAR-4
  GI50: > 100 µM (inactive)
DLD-1
  GI50: > 100 µM (inactive)
NCI-H226
  GI50: > 100 µM (inactive)
Malme-3M
  GI50: > 100 µM (inactive)
ACHN
  GI50: > 100 µM (inactive)
SNB-78
  GI50: > 100 µM (inactive)
UACC-62
  GI50: 36.1 µM (inactive)
XF498
  GI50: > 100 µM (inactive)
A549
  GI50: > 100 µM (inactive)
A498
  GI50: > 100 µM (inactive)
NCI-H460
  GI50: > 100 µM (inactive)
CAKI-1
  GI50: 80.7 µM (inactive)
NCI-H23
  GI50: > 100 µM (inactive)
HT-29
  GI50: > 100 µM (inactive)
EKVX
  GI50: > 100 µM (inactive)
DMS-273
  GI50: > 100 µM (inactive)
OVCAR-3
  GI50: > 100 µM (inactive)
SF-295
  GI50: 26 µM (inactive)
SNB-19
  GI50: 63.8 µM (inactive)
SN12C
  GI50: > 100 µM (inactive)
M19-MEL
  GI50: > 100 µM (inactive)
U-251
  GI50: 41.6 µM (inactive)
TK-10
  GI50: > 100 µM (inactive)
SF-539
  GI50: > 100 µM (inactive)
SF-268
  GI50: 91 µM (inactive)
786-0
  GI50: > 100 µM (inactive)
KM12
  GI50: > 100 µM (inactive)
SW-620
  GI50: > 100 µM (inactive)
SNB-75
  GI50: 65.3 µM (inactive)
HOP-62
  GI50: > 100 µM (inactive)
HOP-92
  GI50: 21.1 µM (inactive)
OVCAR-8
  GI50: > 100 µM (inactive)
HOP-18
  GI50: 50.8 µM (inactive)
SK-MEL-28
  GI50: > 100 µM (inactive)
IGROV-1
  GI50: > 100 µM (inactive)
RXF 393
  GI50: > 100 µM (inactive)

## N=C(N)SCc1cn2ccccc2n1
SK-MEL-2
  GI50: > 100 µM (inactive)
M14
  GI50: > 100 µM (inactive)
SK-MEL-5
  GI50: > 100 µM (inactive)
COLO 205
  GI50: > 100 µM (inactive)
HCT-116
  GI50: > 100 µM (inactive)
CCRF-CEM
  GI50: > 100 µM (inactive)
OVCAR-5
  GI50: > 100 µM (inactive)
UACC-257
  GI50: > 100 µM (inactive)
LOX IMVI
  GI50: > 100 µM (inactive)
OVCAR-4
  GI50: > 100 µM (inactive)
DLD-1
  GI50: 77.8 µM (inactive)
NCI-H226
  GI50: > 100 µM (inactive)
Malme-3M
  GI50: > 100 µM (inactive)
ACHN
  GI50: > 100 µM (inactive)
UO-31
  GI50: > 100 µM (inactive)
SNB-78
  GI50: > 100 µM (inactive)
XF498
  GI50: > 100 µM (inactive)
A549
  GI50: > 100 µM (inactive)
NCI-H522
  GI50: > 100 µM (inactive)
NCI-H460
  GI50: > 100 µM (inactive)
CAKI-1
  GI50: > 100 µM (inactive)
NCI-H23
  GI50: > 100 µM (inactive)
HT-29
  GI50: > 100 µM (inactive)
EKVX
  GI50: > 100 µM (inactive)
DMS-273
  GI50: > 100 µM (inactive)
K562
  GI50: > 100 µM (inactive)
OVCAR-3
  GI50: > 100 µM (inactive)
DMS-114
  GI50: > 100 µM (inactive)
SF-295
  GI50: > 100 µM (inactive)
HCC 2998
  GI50: > 100 µM (inactive)
SNB-19
  GI50: > 100 µM (inactive)
SN12C
  GI50: > 100 µM (inactive)
M19-MEL
  GI50: > 100 µM (inactive)
U-251
  GI50: > 100 µM (inactive)
TK-10
  GI50: > 100 µM (inactive)
SF-539
  GI50: > 100 µM (inactive)
SF-268
  GI50: > 100 µM (inactive)
MOLT-4
  GI50: > 100 µM (inactive)
786-0
  GI50: > 100 µM (inactive)
KM12
  GI50: > 100 µM (inactive)
SW-620
  GI50: > 100 µM (inactive)
SNB-75
  GI50: > 100 µM (inactive)
HL-60
  GI50: > 100 µM (inactive)
HCT-15
  GI50: > 100 µM
RPMI-8226
  GI50: > 100 µM (inactive)
HOP-62
  GI50: > 100 µM (inactive)
OVCAR-8
  GI50: > 100 µM (inactive)
HOP-18
  GI50: > 100 µM (inactive)
SR
  GI50: > 100 µM (inactive)
SK-MEL-28
  GI50: > 100 µM (inactive)

## CC(Sc1ccccc1)C(CO)(CO)[N+](=O)[O-] (stereo not given)
SK-MEL-2
  GI50: 18.2 µM (inactive)
M14
  GI50: 16.9 µM (inactive)
SK-MEL-5
  GI50: 12.7 µM (inactive)
HCT-116
  GI50: 17.8 µM (inactive)
CCRF-CEM
  GI50: 1.85 µM (inactive)
OVCAR-5
  GI50: 22.3 µM (inactive)
UACC-257
  GI50: 14 µM (inactive)
LOX IMVI
  GI50: 7.85 µM (inactive)
OVCAR-4
  GI50: 17.8 µM (inactive)
DLD-1
  GI50: 14.3 µM (inactive)
NCI-H226
  GI50: 16.5 µM (inactive)
Malme-3M
  GI50: 18.9 µM (inactive)
KM-20L2
  GI50: 17.2 µM (inactive)
ACHN
  GI50: 16.9 µM (inactive)
UO-31
  GI50: 10.6 µM (inactive)
SNB-78
  GI50: 22.3 µM (inactive)
UACC-62
  GI50: 15.8 µM (inactive)
A549
  GI50: 19.8 µM (inactive)
NCI-H522
  GI50: 13.5 µM (inactive)
NCI-H460
  GI50: 22.8 µM (inactive)
CAKI-1
  GI50: 17.9 µM (inactive)
NCI-H23
  GI50: 16.8 µM (inactive)
HT-29
  GI50: 16.3 µM (inactive)
EKVX
  GI50: 18.2 µM (inactive)
DMS-273
  GI50: 16.7 µM (inactive)
K562
  GI50: 11.2 µM (inactive)
OVCAR-3
  GI50: 15.2 µM (inactive)
DMS-114
  GI50: 17.2 µM (inactive)
SF-295
  GI50: 14.7 µM (inactive)
HCC 2998
  GI50: 17.2 µM (inactive)
SNB-19
  GI50: 21.4 µM (inactive)
SN12C
  GI50: 16.8 µM (inactive)
M19-MEL
  GI50: 16.4 µM (inactive)
U-251
  GI50: 13.3 µM (inactive)
TK-10
  GI50: 18.9 µM (inactive)
SF-539
  GI50: 16.7 µM (inactive)
SF-268
  GI50: 22.8 µM (inactive)
MOLT-4
  GI50: 3.64 µM (inactive)
SW-620
  GI50: 14.4 µM (inactive)
SNB-75
  GI50: 20.5 µM (inactive)
SK-OV-3
  GI50: 22.2 µM (inactive)
HL-60
  GI50: 3.58 µM (inactive)
LXFL 529
  GI50: 13.7 µM (inactive)
HCT-15
  GI50: 11.5 µM
RPMI-8226
  GI50: 18.9 µM (inactive)
HOP-62
  GI50: 18.2 µM (inactive)
OVCAR-8
  GI50: 14.8 µM (inactive)
HOP-18
  GI50: 21.9 µM (inactive)
SR
  GI50: 2.34 µM (inactive)
IGROV-1
  GI50: 15.6 µM (inactive)
RXF 393
  GI50: 16.4 µM (inactive)
